Laboratory results: PubChem BioAssay AID2693 (Broad Institute, 2010)
In brackets after ≈: the same amount, converted by molar mass. Results filed as inconclusive are left out. Activity calls are given as the source filed them.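 The calls were made as follows: active = a dose response whose lowest growth-blocking dose, signal 3 SD under solvent wells, sits below the top dose; inconclusive = compound fluoresces without dose trend, or replicates split around top dose; inactive = no growth loss up to the top dose.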

Each compound was assayed on S. cerevisiae SKY197-pL101 growth, alamar blue fluorescence, 9 h (assay: yeast viability loss, SKY197-pL101 strain – Alamar Blue fluorescence, MIC, counter-screen for polyadenylation inhibitor project, dose response (AID 2693)).

Structure (SMILES)	MIC
Nc1ncnc2c1ncn2C1OC(CO)CC1O (stereo unspecified)	> 50 µM (inactive)
CCOc1cc(/C=C2\N=C(SC(C)C(N)=O)N(c3ccc(OC(F)F)cc3)C2=O)ccc1O (stereo unspecified)	> 50 µM (inactive)
COc1cc(/C=C2\SC(=S)N(NC(=O)c3ccncc3)C2=O)ccc1O	25 µM (≈ 9.69 µg/mL)
N#CC1(C#N)C2=C(CCCC2)NC(c2ccccc2)C1(C#N)C#N (stereo unspecified)	50 µM (≈ 15.7 µg/mL)
COc1cc(/C=C2/CC/C(=C/c3ccc(O)c(OC)c3)C2=O)ccc1O	> 50 µM (inactive)
N#C/C(=C/c1ccc([N+](=O)[O-])o1)c1nc2ccccc2[nH]1	2.3 µM (≈ 0.645 µg/mL)
Cc1ccc2nc(/C(C#N)=C/c3ccc([N+](=O)[O-])o3)[nH]c2c1	2.3 µM (≈ 0.677 µg/mL)
O=C(Oc1c(-c2ccccc2)c(=O)n2c3c(cccc13)CC2)c1cccc([N+](=O)[O-])c1	> 50 µM (inactive)
CCN1/C(=C\C=C\c2sc3ccccc3[n+]2CC)Sc2ccccc21	4.8 µM
Cc1ccc(-c2nn3c(C)nnc3s2)cc1NC(=O)CSc1ccc(Cl)cc1	> 50 µM (inactive)
COc1cc(/C=C2/SC(=S)N(Cc3ccccc3)C2=O)cc(OC)c1O	> 50 µM (inactive)
Cc1ccc(Nc2c(-c3ccc(C)o3)nc3ncccn23)cc1	> 50 µM (inactive)
CC(=O)c1ccc(Sc2ccccc2)c([N+](=O)[O-])c1	> 50 µM (inactive)
O=C(COC(=O)Cc1ccc(S(=O)(=O)N2CCOCC2)s1)NCc1ccc(Cl)cc1	> 50 µM (inactive)
Cc1ccc(C(=O)c2no[n+]([O-])c2C(=O)c2ccc(C)cc2)cc1	3.1 µM (≈ 0.999 µg/mL)
O=C(O)CN1C(=O)/C(=C\c2ccc(N3CCCCC3)o2)SC1=S	37 µM (≈ 13 µg/mL)
